Earlier results in US20210106004A1, “THERMOPLASTIC MATERIALS HAVING BENEFICIAL PROPERTIES AND PROCESSES FOR PROVIDING THE SAME” (QuadSil, Inc., priority 2016, published 2021).

Settings: background statement

**Q.** With `CCCCCCCCCCCCCCCCCC[N+](C)(C)CCC[Si](OC)(OC)OC.[Cl-]` [3-(trimethoxysilyl) propyldimethyloctadecyl ammonium chloride] as the molecule, how does the “temperature at which thermal decomposition begins” value read?
**A.** Its value is 125 °C.
